From patent publication US20140235856A1, “FIBROBLASTS CELLULAR MODEL FOR ASSESSING EFFICACY OF CANCER TREATMENTS BY SHH/PTCH PATHWAY ANTAGONISTS” (CNRS, priority 2011, published 2014)

System: SHH/PTCH pathway (GLI1 mRNA) in NBCCS 6 E6/E7 fibroblasts
Test: Comparative Q-PCR analysis of GLI1 mRNA accumulation after treatment of fibroblast cell lines with purmorphamine
Assay type: cell-based, human
Settings: NBCCS 6 E6/E7 fibroblasts compared with CTRL E6/E7 fibroblasts, same experimental conditions; 0.1% DMSO; Q-PCR (FIG. 4)
Method: Human primary fibroblasts (named CTRL or NBCCS) were isolated from a healthy non photo-exposed skin biopsy of either a control patient or a patient with caracteristic NBCCS after informed consent (Otto et al., 1999; Valin et al., 2009)
The CTRL and NBCCS6 cell lines were then immortalized by retroviral transduction with pLE6/E7SN resulting in CTRL and NBCCS-E6-E7 (FIG. 1) (Halbert et al., 1991, 1992). Cells were grown at 37° C. in a humified atmosphere containing 5% CO2, DMEM medium, 50 U/ml penicillin, 50 μg/ml streptomycin, 0.125 μg/ml amphotericin B, 2 mM L-Glutamine, 1 mM Sodium pyruvate, 1× non essential amino acids.
Total RNA was extracted with RNeasy® Mini kit according to manufacturer's instructions (Qiagen, Hilden, Germany). Reverse transcription was performed on 1 μg total RNA with Superscript II Reverse Transcriptase (Roche Applied Science, Basel, Switzerland) by using random primers. Q-PCR was carried out using the 7900 HT Fast Real-Time PCR System (Applied Biosystems, Foster City, Calif., USA).
To evaluate small Molecules Modulators of the SHH/PTCH pathway, the Purmorphamine (SMO agonist) was used. Purmorphamine (SMO agonist) was diluted in DMSO at stock concentrations of 50 mM and 10 mM, respectively. To avoid side effects and toxicity, the final concentration of DMSO was fixed to 0.1% DMSO.

SMILES: c1ccc2c(Oc3nc(Nc4ccc(N5CCOCC5)cc4)c4ncn(C5CCCCC5)c4n3)cccc2c1 [Purmorphamine]
- GLI1 mRNA accumulation response, NBCCS 6 E6/E7 versus CTRL cells: 7 × times
